Assays:
Adenosine receptor A3 = target: T1, Adenosine receptor A3 (Homo sapiens, UniProt P0DMS8)
T1 sequence (P0DMS8 whole entry): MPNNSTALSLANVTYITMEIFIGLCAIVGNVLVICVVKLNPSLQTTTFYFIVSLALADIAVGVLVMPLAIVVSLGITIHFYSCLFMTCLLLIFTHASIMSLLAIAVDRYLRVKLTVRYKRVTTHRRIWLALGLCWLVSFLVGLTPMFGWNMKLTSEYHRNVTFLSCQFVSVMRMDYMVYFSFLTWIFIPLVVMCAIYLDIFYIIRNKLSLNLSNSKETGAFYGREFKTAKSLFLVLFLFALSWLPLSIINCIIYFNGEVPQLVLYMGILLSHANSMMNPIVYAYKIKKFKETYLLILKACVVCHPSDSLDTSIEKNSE

Melanocortin receptor 3 = Melanocortin receptor 3 (Homo sapiens, UniProt P41968)
Melanocortin receptor 3, sequence (P41968 whole entry): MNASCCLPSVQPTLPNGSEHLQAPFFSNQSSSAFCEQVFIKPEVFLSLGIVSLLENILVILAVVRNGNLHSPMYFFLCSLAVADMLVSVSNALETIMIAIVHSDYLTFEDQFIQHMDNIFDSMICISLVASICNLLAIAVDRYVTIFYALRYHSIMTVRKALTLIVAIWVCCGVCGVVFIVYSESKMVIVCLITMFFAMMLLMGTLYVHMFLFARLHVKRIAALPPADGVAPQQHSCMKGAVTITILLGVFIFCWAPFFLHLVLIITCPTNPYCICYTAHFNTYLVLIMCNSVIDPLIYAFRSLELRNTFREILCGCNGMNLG

[1] = target: T2, Type-1 angiotensin II receptor (Homo sapiens, UniProt P30556)
T2 sequence (P30556 whole entry): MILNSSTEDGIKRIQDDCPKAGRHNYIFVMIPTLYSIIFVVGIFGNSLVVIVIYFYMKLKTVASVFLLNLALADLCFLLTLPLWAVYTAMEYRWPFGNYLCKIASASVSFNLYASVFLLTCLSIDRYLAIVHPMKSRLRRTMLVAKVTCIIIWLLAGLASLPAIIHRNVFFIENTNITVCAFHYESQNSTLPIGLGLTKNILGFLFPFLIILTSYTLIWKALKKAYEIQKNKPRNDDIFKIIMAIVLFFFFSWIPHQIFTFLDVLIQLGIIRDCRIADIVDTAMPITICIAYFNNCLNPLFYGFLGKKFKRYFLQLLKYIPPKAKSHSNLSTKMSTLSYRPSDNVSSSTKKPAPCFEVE

[2] = target: T3, 5-hydroxytryptamine receptor 1A (Homo sapiens, UniProt P08908); assay type: functional, cell-based
T3 sequence (P08908 whole entry): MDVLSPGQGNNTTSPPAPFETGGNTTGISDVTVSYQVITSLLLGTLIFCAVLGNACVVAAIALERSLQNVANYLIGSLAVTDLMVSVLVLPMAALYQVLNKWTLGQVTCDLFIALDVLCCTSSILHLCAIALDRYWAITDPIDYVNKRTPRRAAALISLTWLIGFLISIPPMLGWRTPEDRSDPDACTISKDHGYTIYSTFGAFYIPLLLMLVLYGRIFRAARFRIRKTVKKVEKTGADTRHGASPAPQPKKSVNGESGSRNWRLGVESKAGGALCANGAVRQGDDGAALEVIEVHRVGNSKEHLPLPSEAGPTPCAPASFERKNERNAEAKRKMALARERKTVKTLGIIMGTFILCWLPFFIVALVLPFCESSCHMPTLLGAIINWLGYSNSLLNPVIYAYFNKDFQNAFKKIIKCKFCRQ

[3] = target: T4, Muscarinic acetylcholine receptor M2 (Homo sapiens, UniProt P08172); assay type: functional, cell-based
T4 sequence (P08172 whole entry): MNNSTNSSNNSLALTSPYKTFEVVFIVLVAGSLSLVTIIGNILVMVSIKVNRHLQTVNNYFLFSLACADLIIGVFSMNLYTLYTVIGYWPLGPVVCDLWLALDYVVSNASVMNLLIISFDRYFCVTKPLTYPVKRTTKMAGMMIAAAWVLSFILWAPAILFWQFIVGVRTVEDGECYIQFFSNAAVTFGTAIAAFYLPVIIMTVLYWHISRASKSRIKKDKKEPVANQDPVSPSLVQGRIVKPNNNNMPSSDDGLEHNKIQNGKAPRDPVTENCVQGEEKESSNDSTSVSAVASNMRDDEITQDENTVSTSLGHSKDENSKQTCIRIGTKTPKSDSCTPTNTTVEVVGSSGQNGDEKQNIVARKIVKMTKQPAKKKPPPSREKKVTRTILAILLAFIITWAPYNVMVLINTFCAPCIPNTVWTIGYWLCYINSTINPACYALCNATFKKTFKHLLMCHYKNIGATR

[4] = target: Neuronal acetylcholine receptor subunit alpha-4 (Homo sapiens, UniProt P43681)
Neuronal acetylcholine receptor subunit alpha-4, sequence (P43681 whole entry): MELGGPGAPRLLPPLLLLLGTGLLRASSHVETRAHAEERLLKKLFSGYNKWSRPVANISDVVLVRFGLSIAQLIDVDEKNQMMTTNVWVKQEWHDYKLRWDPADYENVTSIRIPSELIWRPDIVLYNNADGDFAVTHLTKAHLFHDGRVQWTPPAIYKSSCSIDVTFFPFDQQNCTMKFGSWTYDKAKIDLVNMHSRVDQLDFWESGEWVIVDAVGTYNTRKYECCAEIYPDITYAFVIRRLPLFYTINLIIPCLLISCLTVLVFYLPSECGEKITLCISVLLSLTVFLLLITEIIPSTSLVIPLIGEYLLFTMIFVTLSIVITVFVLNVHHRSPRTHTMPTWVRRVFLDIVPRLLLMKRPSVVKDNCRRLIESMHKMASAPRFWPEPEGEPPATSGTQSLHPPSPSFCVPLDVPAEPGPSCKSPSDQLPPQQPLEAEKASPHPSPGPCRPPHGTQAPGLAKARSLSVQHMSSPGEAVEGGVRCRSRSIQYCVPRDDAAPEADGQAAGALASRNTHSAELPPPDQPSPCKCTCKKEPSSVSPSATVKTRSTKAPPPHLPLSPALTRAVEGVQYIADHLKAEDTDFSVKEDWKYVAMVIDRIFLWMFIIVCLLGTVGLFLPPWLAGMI

Adenosine receptor A2a = Adenosine receptor A2a (Homo sapiens, UniProt P29274)
Adenosine receptor A2a, sequence (P29274 whole entry): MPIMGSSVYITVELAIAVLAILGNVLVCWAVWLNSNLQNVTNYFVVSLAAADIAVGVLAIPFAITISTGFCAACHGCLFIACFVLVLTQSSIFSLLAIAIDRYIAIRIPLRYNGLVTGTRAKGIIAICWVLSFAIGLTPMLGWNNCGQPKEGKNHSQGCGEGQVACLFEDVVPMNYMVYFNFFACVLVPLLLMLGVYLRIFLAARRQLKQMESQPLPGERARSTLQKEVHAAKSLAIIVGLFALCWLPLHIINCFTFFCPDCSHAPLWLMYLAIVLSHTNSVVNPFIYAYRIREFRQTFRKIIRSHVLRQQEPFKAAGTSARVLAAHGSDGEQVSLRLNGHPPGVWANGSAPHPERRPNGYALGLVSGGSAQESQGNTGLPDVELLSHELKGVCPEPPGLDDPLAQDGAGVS

[5] = target: Growth hormone secretagogue receptor type 1 (Homo sapiens, UniProt Q92847)
Growth hormone secretagogue receptor type 1, sequence (Q92847 whole entry): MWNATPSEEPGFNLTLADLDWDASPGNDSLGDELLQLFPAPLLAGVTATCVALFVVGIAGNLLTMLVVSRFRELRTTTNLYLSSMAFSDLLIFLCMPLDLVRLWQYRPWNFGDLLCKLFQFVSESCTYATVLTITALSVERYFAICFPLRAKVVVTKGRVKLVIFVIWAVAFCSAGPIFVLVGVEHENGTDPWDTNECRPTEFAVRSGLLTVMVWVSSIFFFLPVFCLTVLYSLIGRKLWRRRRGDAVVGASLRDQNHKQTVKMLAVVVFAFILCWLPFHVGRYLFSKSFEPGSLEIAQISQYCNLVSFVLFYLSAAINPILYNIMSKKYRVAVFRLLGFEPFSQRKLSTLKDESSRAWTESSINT

[6] = target: T5, Alpha-2A adrenergic receptor (Homo sapiens, UniProt P08913); assay type: functional, cell-based
T5 sequence (P08913 whole entry): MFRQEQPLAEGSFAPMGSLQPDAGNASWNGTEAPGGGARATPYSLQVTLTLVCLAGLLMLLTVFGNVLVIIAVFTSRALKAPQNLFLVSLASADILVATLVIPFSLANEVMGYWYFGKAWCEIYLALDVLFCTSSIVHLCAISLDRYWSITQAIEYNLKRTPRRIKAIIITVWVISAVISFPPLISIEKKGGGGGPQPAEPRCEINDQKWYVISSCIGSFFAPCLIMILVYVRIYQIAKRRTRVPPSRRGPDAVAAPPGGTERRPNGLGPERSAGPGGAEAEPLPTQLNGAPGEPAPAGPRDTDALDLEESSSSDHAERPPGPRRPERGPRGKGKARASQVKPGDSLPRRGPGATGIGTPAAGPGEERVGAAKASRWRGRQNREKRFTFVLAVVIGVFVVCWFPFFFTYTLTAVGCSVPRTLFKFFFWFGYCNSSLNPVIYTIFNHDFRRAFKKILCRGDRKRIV

[7] = target: T6, 5-hydroxytryptamine receptor 3A (Homo sapiens, UniProt P46098); assay type: functional
T6 sequence (P46098 whole entry): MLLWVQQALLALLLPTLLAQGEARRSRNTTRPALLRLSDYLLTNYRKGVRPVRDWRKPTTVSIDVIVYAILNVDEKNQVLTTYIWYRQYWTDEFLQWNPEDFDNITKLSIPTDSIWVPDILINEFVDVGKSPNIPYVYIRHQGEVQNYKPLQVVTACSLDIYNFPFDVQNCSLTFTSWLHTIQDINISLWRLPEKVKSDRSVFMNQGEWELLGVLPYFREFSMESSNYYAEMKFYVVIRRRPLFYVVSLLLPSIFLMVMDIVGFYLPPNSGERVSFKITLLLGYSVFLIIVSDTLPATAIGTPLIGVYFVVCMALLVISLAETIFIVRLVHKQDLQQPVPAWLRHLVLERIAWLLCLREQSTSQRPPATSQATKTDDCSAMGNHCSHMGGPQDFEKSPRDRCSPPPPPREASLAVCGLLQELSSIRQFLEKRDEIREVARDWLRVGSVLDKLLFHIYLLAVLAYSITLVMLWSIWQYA

[8] = target: Sodium-dependent dopamine transporter (Homo sapiens, UniProt Q01959)
Sodium-dependent dopamine transporter, sequence (Q01959 whole entry): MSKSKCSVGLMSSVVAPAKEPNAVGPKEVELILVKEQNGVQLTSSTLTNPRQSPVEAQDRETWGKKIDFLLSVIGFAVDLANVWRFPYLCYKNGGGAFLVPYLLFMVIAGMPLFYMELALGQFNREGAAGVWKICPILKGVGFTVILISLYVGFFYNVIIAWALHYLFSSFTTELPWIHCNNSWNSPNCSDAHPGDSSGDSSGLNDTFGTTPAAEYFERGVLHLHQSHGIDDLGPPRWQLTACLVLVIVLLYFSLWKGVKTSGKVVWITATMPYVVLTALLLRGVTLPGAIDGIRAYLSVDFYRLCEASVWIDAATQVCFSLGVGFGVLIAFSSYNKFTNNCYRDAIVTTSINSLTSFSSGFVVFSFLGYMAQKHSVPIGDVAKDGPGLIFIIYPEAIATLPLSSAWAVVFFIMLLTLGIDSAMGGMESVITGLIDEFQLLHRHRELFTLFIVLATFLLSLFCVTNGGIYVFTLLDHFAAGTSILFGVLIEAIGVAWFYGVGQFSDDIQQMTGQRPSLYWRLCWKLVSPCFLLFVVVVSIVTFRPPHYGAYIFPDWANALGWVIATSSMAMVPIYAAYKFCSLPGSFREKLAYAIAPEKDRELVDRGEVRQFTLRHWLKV

[9] = target: Delta-type opioid receptor (Homo sapiens, UniProt P41143)
Delta-type opioid receptor, sequence (P41143 whole entry): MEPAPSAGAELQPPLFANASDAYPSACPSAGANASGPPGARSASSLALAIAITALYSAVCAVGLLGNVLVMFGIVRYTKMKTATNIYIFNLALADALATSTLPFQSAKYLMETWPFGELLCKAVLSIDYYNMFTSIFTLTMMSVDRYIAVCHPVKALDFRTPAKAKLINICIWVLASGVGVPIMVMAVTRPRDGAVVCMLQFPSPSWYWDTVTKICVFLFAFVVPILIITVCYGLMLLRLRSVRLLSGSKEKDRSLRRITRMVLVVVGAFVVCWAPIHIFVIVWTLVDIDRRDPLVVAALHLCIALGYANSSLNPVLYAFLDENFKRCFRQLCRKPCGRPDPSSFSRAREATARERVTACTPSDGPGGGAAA
Also: assay procedure not described here.

Compound: CC(=O)N[C@@H](CS)C(=O)O [ACETYLCYSTEINE]
- AC50 (Adenosine receptor A3): > 30 µM
- AC50 (Melanocortin receptor 3): > 30 µM
- AC50 [1]: > 30 µM
- AC50 [2]: > 30 µM
- AC50 [3]: > 30 µM
- AC50 [4]: > 30 µM
- AC50 (Adenosine receptor A2a): > 30 µM
- AC50 [5]: > 30 µM
- AC50 [6]: > 30 µM
- AC50 [7]: > 30 µM
- AC50 [8]: > 30 µM
- AC50 [9]: > 30 µM

Compound: CC(C(=O)O)c1ccc(-c2ccccc2)c(F)c1 (configuration not stated) [FLURBIPROFEN]
- AC50 (Adenosine receptor A3): > 10 µM
- AC50 (Melanocortin receptor 3): > 10 µM
- AC50 [1]: > 10 µM
- AC50 [2]: > 10 µM
- AC50 [3]: > 10 µM
- AC50 [4]: > 10 µM
- AC50 (Adenosine receptor A2a): > 10 µM
- AC50 [5]: > 10 µM
- AC50 [6]: > 10 µM
- AC50 [7]: > 10 µM
- AC50 [8]: > 10 µM
- AC50 [9]: > 30 µM

Compound: CCC1(c2ccccc2)CCC(=O)NC1=O (configuration not stated) [GLUTETHIMIDE]
- AC50 (Adenosine receptor A3): > 10 µM
- AC50 (Melanocortin receptor 3): > 10 µM
- AC50 [1]: > 10 µM
- AC50 [2]: > 30 µM
- AC50 [3]: > 10 µM
- AC50 [4]: > 10 µM
- AC50 (Adenosine receptor A2a): > 10 µM
- AC50 [5]: > 10 µM
- AC50 [6]: > 10 µM
- AC50 [7]: > 30 µM
- AC50 [8]: > 10 µM
- AC50 [9]: > 30 µM

Compound: COc1cc(N)c(Cl)cc1C(=O)NC1CCN(Cc2ccccc2)CC1 [CLEBOPRIDE]
- AC50 (Adenosine receptor A3): > 30 µM
- AC50 (Melanocortin receptor 3): > 30 µM
- AC50 [1]: > 30 µM
- AC50 [2]: > 30 µM
- AC50 [3]: > 30 µM
- AC50 [4]: 24 µM
- AC50 (Adenosine receptor A2a): > 30 µM
- AC50 [5]: > 30 µM
- AC50 [6]: > 30 µM
- AC50 [7]: 8.6 µM
- AC50 [8]: 22 µM
- AC50 [9]: > 30 µM

Compound: Nc1ncn([C@H]2C[C@H](O)[C@@H](CO)O2)c(=O)n1 [DECITABINE]
- AC50 (Adenosine receptor A3): > 30 µM
- AC50 (Melanocortin receptor 3): > 30 µM
- AC50 [1]: > 30 µM
- AC50 [2]: > 30 µM
- AC50 [3]: > 30 µM
- AC50 [4]: > 30 µM
- AC50 (Adenosine receptor A2a): > 30 µM
- AC50 [5]: > 30 µM
- AC50 [6]: > 30 µM
- AC50 [7]: > 30 µM
- AC50 [8]: > 30 µM
- AC50 [9]: > 30 µM

Compound: CC(C(=O)O)c1ccc(CC2CCCC2=O)cc1 (configuration not stated) [LOXOPROFEN]
- AC50 (Adenosine receptor A3): > 30 µM
- AC50 (Melanocortin receptor 3): > 30 µM
- AC50 [1]: > 30 µM
- AC50 [2]: > 30 µM
- AC50 [3]: > 30 µM
- AC50 [4]: > 30 µM
- AC50 (Adenosine receptor A2a): > 30 µM
- AC50 [5]: > 30 µM
- AC50 [6]: > 30 µM
- AC50 [7]: > 30 µM
- AC50 [8]: > 30 µM
- AC50 [9]: > 30 µM

Compound: CN1CCC(=C2c3ccccc3CCc3cccnc32)CC1 [AZATADINE]
- AC50 (Adenosine receptor A3): > 30 µM
- AC50 (Melanocortin receptor 3): > 30 µM
- AC50 [1]: > 30 µM
- AC50 [2]: > 30 µM
- AC50 [3]: > 10 µM
- AC50 [4]: > 10 µM
- AC50 (Adenosine receptor A2a): > 30 µM
- AC50 [5]: > 30 µM
- AC50 [6]: > 10 µM
- AC50 [7]: > 30 µM
- AC50 [8]: > 30 µM
- AC50 [9]: > 30 µM

Compound: CCCC(CCC)C(N)=O [VALPROMIDE]
- AC50 (Adenosine receptor A3): > 30 µM
- AC50 (Melanocortin receptor 3): > 30 µM
- AC50 [1]: > 30 µM
- AC50 [2]: > 30 µM
- AC50 [3]: > 10 µM
- AC50 [4]: > 10 µM
- AC50 (Adenosine receptor A2a): > 30 µM
- AC50 [5]: > 30 µM
- AC50 [6]: > 10 µM
- AC50 [7]: > 30 µM
- AC50 [8]: > 30 µM
- AC50 [9]: > 30 µM

Compound: Cc1cc(C(C)(C)C)cc(C)c1CC1=NCCN1 [XYLOMETAZOLINE]
- AC50 (Adenosine receptor A3): > 30 µM
- AC50 (Melanocortin receptor 3): > 30 µM
- AC50 [1]: > 30 µM
- AC50 [2]: 0.0178 µM
- AC50 [3]: > 30 µM
- AC50 [4]: > 30 µM
- AC50 (Adenosine receptor A2a): > 30 µM
- AC50 [5]: > 30 µM
- AC50 [6]: > 30 µM
- AC50 [7]: > 30 µM
- AC50 [8]: > 30 µM
- AC50 [9]: > 30 µM

Compound: C#C[C@]1(OC(C)=O)CC[C@H]2[C@@H]3CCC4=C/C(=N/O)CC[C@@H]4[C@H]3CC[C@@]21CC [NORGESTIMATE]
- AC50 (Adenosine receptor A3): 11 µM
- AC50 (Melanocortin receptor 3): > 30 µM
- AC50 [1]: 22 µM
- AC50 [2]: > 30 µM
- AC50 [3]: > 30 µM
- AC50 [4]: > 30 µM
- AC50 (Adenosine receptor A2a): > 30 µM
- AC50 [5]: > 30 µM
- AC50 [6]: > 30 µM
- AC50 [7]: > 30 µM
- AC50 [8]: 10 µM
- AC50 [9]: > 30 µM

Compound: COCC1=C(C(=O)O)N2C(=O)[C@@H](NC(=O)/C(=N\OC)c3csc(N)n3)[C@H]2SC1 [CEFPODOXIME]
- AC50 (Adenosine receptor A3): > 30 µM
- AC50 (Melanocortin receptor 3): > 30 µM
- AC50 [1]: > 30 µM
- AC50 [2]: > 30 µM
- AC50 [3]: > 30 µM
- AC50 [4]: > 30 µM
- AC50 (Adenosine receptor A2a): > 30 µM
- AC50 [5]: > 30 µM
- AC50 [6]: > 30 µM
- AC50 [7]: > 30 µM
- AC50 [8]: > 30 µM
- AC50 [9]: > 30 µM

From ChEMBL document CHEMBL5291721, “A preclinical secondary pharmacology resource illuminates target-adverse drug reaction associations of marketed drugs” (Nat Commun, 2023)
